Results: article PMC6024615, “Effect of Biliary Drainage on the Toxicity and Toxicokinetics of Amanita exitialis in Beagles” (Toxins, 2018)
Like-named read-outs stand apart in the source and are kept apart here.

How the values were obtained:
[1] = cited from earlier work
Method: The difference in detectable time in the urine can be explained by the low level of internal exposure (amatoxins in the blood). […] The daily amounts of peptide toxins excreted in urine in beagles without biliary drainage(mg). Time after α-Amanitin β-Amanitin Phallacidin ingestion 20 mg/kg 60 mg/kg 20 mg/kg 60 mg/kg 20 mg/kg 60 mg/kg group group group group group group 0-1d 0.0379 0.0593 0.0156 0.0251 0.0035 0.0088 (97.9%) (92.8%) (99.9%) (94.7%) (94.2%) (76%) 1-2d 0.0388 0.0618 0.01567 0.0255 0.0037 0.0110 (99.995%) (97.5%) (100%) (96.2%) (100%) (93%) 2-3d 0.0002 0.0626 0 0.0260 0 0.0115 (100%) (99.4%) (100%) (98.2%) (100%) (97.3%) 3-4d 0 0.063 ...

[2] = Peptide toxins in the urine of beagles with biliary drainage; type: in vivo, beagle dogs; conditions: for Total (accumulated) amount excreted in urine / percentage of total urine excretion, Total: 0–4 days
Method: The study was approved by National Institute of Occupational Health and Poison Control review board for animal experiments. Twenty-four male beagles (age, 8–10 months; weight, 10 ± 1 kg) were obtained from Beijing Institute of Xieerxin Biology Resource (Beijing, China). They were randomly divided into four groups of six animals each: control, biliary drainage, and 20 and 60 mg/kg with biliary drainage groups. The biliary drainage operation was conducted in all groups barring the control group. The dogs were dressed in homemade underwear, coats, and Elizabeth circles for a week to ensure pre-experimental acclimatization (Figure S8a–c). After determining the baseline values for biochemical indicators, the dogs were fasted for 24 h but received water ad libitum. They were anesthetized by intravenous administration of pentobarbital sodium (3%, 1 mL/kg) during the surgery. A temperature of 38–39 °C was maintained with a warming mat. After skin preservation and sterilization, the abdominal cavity was opened through the central abdomen. The abdomen was explored and blunt dissection of the common bile duct was performed (Figure S8d). The common bile duct and its branches were ligated from the intestinal side. A 7.0-Fr drainage catheter (COOK, Bloomington, IN, USA) was percutaneously inserted into the gallbladder, and a medical drainage bag was connected to the drainage catheter coming out of the abdominal cavity. Each opened layer, including the peritoneum, abdominal wall muscle, and skin, was closed with suture. The operative incision was protected with sterile gauze and a bandage, and the dogs were dressed in homemade underwear, coats, and Elizabeth circles. The drainage bag was placed in the pocket of the coat (Figure S8e). After the anesthetic wore off, the dogs were placed in cages, and food and water were provided ad libitum. The operative incision was sterilized with iodophor twice a day until stitches were removed six days after surgery. The drainage bag was replaced every day. On the eighth day after surgery, the 20 and 60 mg/kg with biliary drainage groups were orally administered a lyophilized powder of Amanita exitialis in starch capsules. In control and bile drainage group, the beagle dogs were fed with empty capsules. Immediately after dosing, the animals were placed in their cages, and food and water were provided ad libitum. Dogs were sacrificed with an overdose of sodium pentobarbital at the end of the experiment. All procedures were performed according to the ethical standards of the National Institutes of Health Guide for Animal Welfare and approved by the Institutional Animal Care and Use Committee (EAWE-2017-005).
Peptide toxins in blood and urine samples were analyzed as described previously. Bile samples from Days 0–1, Days 1–2, Days 2–3, and Days 3–4 were collected and stored in medical drainage bags and the bile volume was recorded. Plasma and urine samples were stored at 2–8 °C until analysis for peptide toxins.
UPLC and MS/MS parameters were as described in our previous study. The limit of detection and limit of quantitation of each toxin in the bile were 0.03 mg/kg and 0.5 mg/kg, respectively.

[3] = 20 mg/kg with biliary drainage group
[4] = 60 mg/kg with biliary drainage group
[5] = 1–2 days, 20 mg/kg with biliary drainage group
[6] = 1–2 days, 60 mg/kg with biliary drainage group
[7] = 2–3 days, 20 mg/kg with biliary drainage group
[8] = 2–3 days, 60 mg/kg with biliary drainage group
[9] = 3-4d, 20 mg/kg with biliary drainage group
[10] = 3-4d, 60 mg/kg with biliary drainage group
[11] = 3–4 days, 20 mg/kg with biliary drainage group
[12] = 3–4 days, 60 mg/kg with biliary drainage group

## CC[C@H](C)[C@@H]1NC(=O)CNC(=O)[C@@H]2Cc3c([nH]c4cc(O)ccc34)[S@+]([O-])C[C@H](NC(=O)CNC1=O)C(=O)N[C@@H](CC(N)=O)C(=O)N1C[C@H](O)C[C@H]1C(=O)N[C@@H]([C@@H](C)[C@@H](O)CO)C(=O)N2 [α-amanitin]
[1]; 0-1d, 20 mg/kg group
  daily amount excreted in urine, without biliary drainage: 0.0379 mg
  percentage in parentheses, urine, without biliary drainage: 97.9%
[1]; 0-1d, 60 mg/kg group
  daily amount excreted in urine, without biliary drainage: 0.0593 mg
  percentage in parentheses, urine, without biliary drainage: 92.8%
[1]; 20 mg/kg group
  Accumulative amount excreted in urine, without biliary drainage: 0.039 mg
  percentage in parentheses, Accumulative amount, urine, without biliary drainage: 100%
[1]; 20 mg/kg group, listed as α-Amanitin
  Accumulative amount excreted in urine, without biliary drainage: 0.0390 mg
[1]; 60 mg/kg group
  Accumulative amount excreted in urine, without biliary drainage: 0.0630 mg
  percentage in parentheses, Accumulative amount, urine, without biliary drainage: 100%
[1]; 1-2d, 20 mg/kg group
  percentage in parentheses, urine, without biliary drainage: 99.995%
[1]; 1-2d, 60 mg/kg group
  daily amount excreted in urine, without biliary drainage: 0.0618 mg
  percentage in parentheses, urine, without biliary drainage: 97.5%
[1]; 2-3d, 20 mg/kg group
  daily amount excreted in urine, without biliary drainage: 0.0002 mg
  percentage in parentheses, urine, without biliary drainage: 100%
[1]; 2-3d, 60 mg/kg group
  daily amount excreted in urine, without biliary drainage: 0.0626 mg
  percentage in parentheses, urine, without biliary drainage: 99.4%
[1]; 3-4d, 20 mg/kg group
  daily amount excreted in urine, without biliary drainage: 0 mg
  percentage in parentheses, urine, without biliary drainage: 100%
[1]; 3-4d, 60 mg/kg group
  daily amount excreted in urine, without biliary drainage: 0.0630 mg
  percentage in parentheses, urine, without biliary drainage: 100%
[2]; 0-1 d, 60 mg/kg with biliary drainage group
  detection rate of peptide toxins in urine: 100%
[2]; 0–1 days, 20 mg/kg with biliary drainage group
  daily amount excreted in urine: 0.0147 mg
[2]; 0–1 days, 20 mg/kg with biliary drainage group, 20 mg/kg
  percentage of total urine excretion excreted daily: more than 90%
[2]; 0–1 days, 20 mg/kg with biliary drainage group, listed as α-Amanitin, 20 mg/kg
  percentage of total urine excretion excreted daily: 96.3%
[2]; 0–1 days, 60 mg/kg with biliary drainage group
  daily amount excreted in urine: 0.0213 mg
[2]; 0–1 days, 60 mg/kg with biliary drainage group, 60 mg/kg
  percentage of total urine excretion excreted daily: more than 90%
[2]; 0–1 days, 60 mg/kg with biliary drainage group, listed as α-Amanitin, 60 mg/kg
  percentage of total urine excretion excreted daily: 90.9%
[2]; [3]
  Total (accumulated) amount excreted in urine: 0.0151 mg
  percentage of total urine excretion, Total: 100%
  time within which toxin was detected in urine: two
[2]; [4]
  Total (accumulated) amount excreted in urine: 0.0222 mg
  percentage of total urine excretion, Total: 100%
  time within which toxin was detected in urine: three
[2]; 1-2 d, 20 mg/kg with biliary drainage group
  detection rate of peptide toxins in urine: 100%
[2]; 1-2 d, 60 mg/kg with biliary drainage group
  detection rate of peptide toxins in urine: 100%
[2]; [5]
  daily amount excreted in urine: 0.0004 mg
  percentage of total urine excretion excreted daily: 3.7%
[2]; [6]
  daily amount excreted in urine: 0.0007 mg
  percentage of total urine excretion excreted daily: 8.9%
[2]; 2-3 d, 20 mg/kg with biliary drainage group
  detection rate of peptide toxins in urine: 0%
[2]; 2-3d, 20 mg/kg with biliary drainage group, mean ± SD
  toxin content in urine: 0 µg/L
[2]; 2-3 d, 60 mg/kg with biliary drainage group
  detection rate of peptide toxins in urine: 50%
[2]; [7]
  daily amount excreted in urine: 0(0%) mg
  percentage of total urine excretion excreted daily: 0(0%)
[2]; [8]
  daily amount excreted in urine: 0.0001 mg
  percentage of total urine excretion excreted daily: 0.2%
[2]; [9]
  detection rate of peptide toxins in urine: 0%
  toxin content in urine: 0 µg/L
[2]; [10]
  detection rate of peptide toxins in urine: 0%
  toxin content in urine: 0 µg/L
[2]; [11]
  daily amount excreted in urine: 0(0%) mg
  percentage of total urine excretion excreted daily: 0(0%)
[2]; [12]
  daily amount excreted in urine: 0(0%) mg
  percentage of total urine excretion excreted daily: 0(0%)
[2]; beagles with biliary drainage, both dose groups
  share of total urine excretion in the 0–2-day urine: more than 95%
